Experimental findings from US6765105B2, “Compound and pharmaceutical composition of antiplasmid effect and the preparation thereof” (priority 2000, dated 2004) are described below.

In general, MIC refers to the lowest concentration found to suppress growth.

For one series, the system named is E. coli. The experiment in a line: Bacteriostatic effect (MIC), serial dilution in liquid culture medium. The class given is cell-based.
The test system of series [1] is RN 4220 S. aureus, plasmid pBI 109 PGL. It is filed as cell-based. The conditions noted are these: without substance 68.7.
Series [2] deals with RN 4220 S. aureus, plasmid pCRG 1600. The class given is cell-based. The conditions noted are these: without substance 2.1.
Series [3] concerns F′lac plasmid of E. coli K12. The class given is cell-based. How it is done:
(§1) We made a dilution of 10^−4 from a culture of 16 hours of the bacteria strain K12 LE140 of E. coli and we inoculated 0.05 ml (1 to 5×10^3 cells) of it into 5 ml of broth culture medium MTE. The cultures with plasmid eliminating compounds added in different concentrations were incubated at 37° C. during 24 hours. We made dilutions from the contents of tubes, in which growth of bacteria were detected, then 0.1 ml of these dilutions were streaked onto EMB agar. The plates were incubated at 37° C. during 24 hours, then we counted the settlements of bacteria of types lac^+ and lac^−, which provides basis to calculate the percent of inhibition.

The subject of series [4] is RN 4220 S. aureus, plasmid pIP 856. It is filed as cell-based. The following applies: without substance 2.3.
The next series relates to plasmid. The experiment in a line: In vitro experiments for antiplasmid effect (plasmid eliminating ability). The conditions noted are these: for Eliminating ability (in words) / Plasmid eliminating ability: in vitro; for Plasmid eliminating ability: in concentration of 50 μg/ml. The class given is cell-based.
Source text: The elimination of R-plasmids and F′lac plasmids, as well as inhibition of transmission of R-plasmid transfer were studied.
These are the compounds under mark FC-1181, FC-1186 and Sila-439. The compound sila-429 (75%) was compared against three representatively antibiotic resistant strains of bacteria, as follows: the polyresistant Acinetobacter anitratus, the resistant to gentamycine staphylococcus aureus and the Methycilline resistant Staphylococcus aureus strains.
(§2) We made a dilution of 10^−4 from a preliminary culture of 16 hours of E. coli strains containing R-factor, and dosed 0.05 ml therefrom into a broth culture medium MTE of 5 ml. We completed the cultures with the examined compounds in different concentrations and kept them at the temperature 37° C. during 24 to 48 hours without aeration. We made different dilutions from the cultures and streaked 0.1 ml of them onto EP agar plates. Having incubated them during the night we made a replication from the plates containing the cultures onto plates containing the corresponding antibiotics.
as §1

Series [5] deals with RN 4220 S. aureus, plasmid pIP 855. The class given is cell-based. The following applies: without substance 1.8.
Series [6] concerns E. coli K12 F′lac (PBR322) plasmid. It is filed as cell-based. How it is done:
as §2
The plates containing antibiotics were incubated at 37° C. during 24 hours then the settlements of bacteria on them were compared to those on the master plates and the requirement of nutrition of the bacteria was examined.

Series [7] relates to E. coli K12 J5-3 (R386) donor to E. coliχ1037 recipient. The following applies: donor E. coli K12 J5-3 (R386). How it is done:
(§3) We made tenfold dilutions of fresh donor culture of E. coli C600 R144 drd-3 and of fresh recipient culture resistant to i^r and in some cases to nalid-x acid of E. coli K12 W1 at optical density of 0.4 ([…]), then we mixed together 1.0 ml of donor culture and 1.0 ml of recipient culture and kept the samples at the temperature 37° C. 0 to 24 hours in presence of the applied compounds.
(§4) As control the mixture of donor and recipient cultures of the same proportion was incubated.
(§5) We performed experiments of two types to clarify the manner of action. The donor cells were previously treated during 5 minutes with the compound to be examined being in corresponding concentration, and the recipient cells were added thereafter in the experiments of one type The compounds to be examined were added 5 minutes after mixing together the donor and recipient cultures in the experiments of the other type. The target of our examinations was the inhibition of the conjugated transfer at the formed pairs. We made tenfold dilutions of the samples with physiological saline solution, the formed pairs of cells were divided by shaking during 1 minute then we made following dilutions where no more resistance transfer passed (see. Beverley and fellow-workers, 1981).
(§6) We streaked quantities of 0.1 ml form the dilutions onto MTE agar plates containing 50 μg/ml of kanamycine and onto plates containing 500 μg/ml of sodium azide to determine the number of recombinants. The number of donor bacteria was established only on the culture medium containing kanamycine, the number of recipient ones was established only on the culture medium containing sodium azide. The plates were kept during 48 hours at 37° C.

Series [8] relates to E. coli K12 J5-3 (R16) donor to E. coliχ1037 recipient. The conditions noted are these: donor E. coli K12 J5-3 (R16). The procedure:
as §3, §4, §5, §6

Series [9] relates to E. coli K12 J5-3 (R27) donor to E. coliχ1037 recipient. The conditions noted are these: donor E. coli K12 J5-3 (R27). The procedure:
as §3, §4, §5, §6

Series [10] has as its system E. coli K12 F′lac2 donor to E. coliχ1037 recipient. The procedure:
as §3, §4, §5, §6

The subject of series [11] is E. coli K 12 F′lac1 donor to E coliχ1037 recipient. The procedure: as §3, §4, §5, §6
A further series deals with mice. The procedure: We used the usual dose of inoculation i.e. 0,2 ml per 10 g weight. […] The exact definition of this value should be done in an institute dealing with toxicology and clinical pharmacology.
Series [12] concerns Staphylococcus aureus (resistant to gentamycine). The procedure:
(§7) The bacteriostatic effect was inspected on a liquid culture medium using method of serial dilution. We inoculated 0.05 ml of culture of the examined bacteria being in exponential phase (i.e. of optical density 0.4) in dilution by 10^−4 into broth culture medium MTE of 5 ml. The culture of E. coli of optical density 0.4 contained 4.1 to 5.2×10^8, the one of Staphylococcus aureus of similar density contained 2.2 to 8.2×10^7 settlement building units per ml. […] We examined thereafter the smallest concentration of each compound, which still inhibits the proliferation of the identical number of bacteria. The examinations for the antiplasmid effect could be begun after having been obtained the mentioned date, because these effects can be detected only at values lower than MIC.
(§8) The previously established MIC (minimal inhibiting concentration) values are as follows: […]

Series [13] concerns Acinetobactes anitratus (resistant to Chlorocid). The procedure: as §7, §8
Series [14] relates to Escherichia coli (resistant to Chlorocid). How it is done:
as §7, §8

[15] abbreviates: concentration of elimination 25 mg/ml.
[16] abbreviates: concentration of elimination 33 mg/ml.
Setting [17] is: concentration of elimination 62,5 mg/ml.
Setting [18] is: concentration of elimination 312, mg/ml.
Setting [19] is: dose of 500 mg/kg, intraperitoneal, 5 mice.
Setting [20] is: concentration of elimination 18 mg/ml.
Where [21] appears, read: second line for FC-2006/C, concentration of elimination not given.

Entries after “also recorded” stand apart in the source; their conditions may differ. Like-named read-outs stand apart in the source and are kept apart here. Marks after values point to notes of the source that are not given here.

On to `CCCC[Si](C)(C)COc1ccc(C(=O)OCCC[N+](C)(C)C)cc1.[I-]` [FC-2012, 4-(dimethyl-n-butyl-silil-methyloxy)-benzoic acid-3-dimethylamino-propyl-ester-methoiodide], for which the minimum inhibitory concentration (MIC) in the series on E. coli is 39 mg/mL. Also, the “Frequency of elimination (%)” value in [1] (plasmid pBI 109 PGL, 7.,8 μg/ml) worked out at 88.0%; in series [2] (plasmid pCRG 1600, 7.8 μg/ml), 10.1%; in [4] (plasmid pIP 856, 7.8 μg/ml), 34.6%; in series [5] (plasmid pIP 855, 7.8 μg/ml), 41.9%. Further, the “Frequency of elimination (%) Lac” value in [3] (setting [15]) and in series [3] (setting [16]) was 0% each time. In addition, the “Eliminating ability (in words)” value with plasmid is given as “good eliminating ability”. The “Frequency of elimination (%) ApTC” value in [6] (setting [15]) worked out at 2%; in [6] (setting [16]), 27%. In addition, the “Frequency of elimination (%) TC” value in series [6] (setting [15]) turned out to be 10%; in [6] (setting [16]), 58%. Also, the Frequency of transfer was 0.6 × 10^−1*** in [7] (in concentration of 30 μg/ml, without substance 0.4); 1 × 10^−3*** in [8] (in concentration of 30 μg/ml, without substance 1.2 × 10^−2); 2.3 × 10^−4*** in series [9] (in concentration of 30 μg/ml, without substance 2.5 × 10^−4); 0** in series [10] (donor E. coli K12 F′lac2, in concentration of 15 μg/ml, without substance 0.2 × 10^−5); 0** in series [11] (donor E. coli K 12 F′lac1, in concentration of 15 μg/ml, without substance 0.8 × 10^−6).
As for `CC[n+]1c(-c2ccccc2)c2cc(N)ccc2c2ccc(N)cc21` [Ethidium bromide, reference compound], the “Frequency of elimination (%)” value in [1] (plasmid pBI 109 PGL, 3.9 μg/ml) is 88.2%; in [2] (plasmid pCRG 1600, 62.5 μg/ml) it was 2.8%; in series [4] (plasmid pIP 856, 1.95 μg/ml) it was 12.3%; in [5] (plasmid pIP 855, 1.95 μg/ml) it was 9.4%. Moreover, the “Frequency of elimination (%) Lac” value in [3] (setting [17]) and in [3] (setting [18]) was 0% each time. In addition, the results for the “Frequency of elimination (%) ApTC” value in [6] (setting [17]) and in series [6] (setting [18]) were 24% and 0%, respectively. Moreover, the “Frequency of elimination (%) TC” value in [6] (setting [17]) was 30%; in series [6] (setting [18]), 10%.
In the case of `C[N+](C)(C)CCOC(=O)c1ccc(OCCC[Si](C)(C)C)cc1.[I-]` [Sila-439, 4-(3-trimethyl-silil-propyloxy)-benzoic acid-2-dimethyl-amino-ethyl-ester-methoiodide], the “Toxicity (i.p), mice alive per mice inoculated” value in the series on mice (50 mg/kg (0.01 ml/mouse) i.p., 2 hours) is 5/5; in the series with mice (50 mg/kg (0.01 ml/mouse) i.p., 6 hours), 5/5; in the series with mice (50 mg/kg (0.01 ml/mouse) i.p., 9 hours) it was 5/5; in the series on mice (50 mg/kg (0.01 ml/mouse) i.p., 12 hours), 5/5; in the series with mice (50 mg/kg (0.01 ml/mouse) i.p., 24 hours), 5/5; in the series with mice (500 mg/kg (0.1 ml/mouse) i.p., 2 hours), 0/5. The “Condition of the mice after inoculation” value in the series on mice (dose of 50 mg/kg, intraperitoneal) was “lived and moved vividly exactly like those in the control group”. In addition, the Mortality after inoculation result in the series on mice (setting [19]) is “all the five mice died”. Besides, in the series on mice (setting [19]), the Spasms after inoculation entry is “spasms occurred in the 5 inoculated mice in two minutes”. Also, the “MIC (minimal inhibiting concentration)” value in series [12] amounted to 180 μ/ml; in series [13], 0.08 mg/mL; in [14] it was 0.07 mg/mL. For the same molecule, the “Concentration at which the antiplasmid effect manifests” value in the series with plasmid stood at 40 µg/mL. The Plasmid eliminating ability result with plasmid is “outstanding plasmid eliminating ability”. Also, the “Eliminating ability (in words)” value with plasmid is “extraordinary good eliminating ability; also recorded: very good plasmid elimination effect”. Besides, in the series on plasmid (three compounds effective from 36 studied), the “Antiplasmid effect in in vitro experiments” value is listed as “effective”.
“4(dimethyl-n-butyl-silil-methyloxy)-benzoic acid-(3-pyridyl)-methylester-methoiodide [FC-2006/C]” gave a minimum inhibitory concentration (MIC) in the series on E. coli of 25 mg/mL. Moreover, the “Frequency of elimination (%)” value in [1] (plasmid pBI 109 PGL, 9.5 μg/ml) was 94.4%; in [2] (plasmid pCRG 1600, 9.5 μg/ml) it was 32.6%; in series [4] (plasmid pIP 856, 9.5 μg/ml), 75.1%; in series [5] (plasmid pIP 855, 9.5 μg/ml) it was 69.2%. Also, the “Frequency of elimination (%) Lac” value in [3] (setting [20]) and in [3] (setting [21]) was 0% throughout. Also, the Plasmid eliminating ability entry in the series with plasmid is on record as “outstanding plasmid eliminating ability”. In addition, in the series on plasmid, the “Eliminating ability (in words)” value is reported as “good eliminating ability”. In the series with plasmid (only to one E. coli plasmid), the Eliminating effect was approximately 100%. Besides, the “Frequency of elimination (%) ApTC” value in [6] (setting [20]) and in [6] (setting [21]) was 0% each time. The “Frequency of elimination (%) TC” value in series [6] (setting [20]) and in series [6] (setting [21]) was 0% each time. Further, the Frequency of transfer is given as 0.9 × 10^−2 in series [7] (in concentration of 24.7 μg/ml, without substance 0.5 × 10^−1); 0.3 × 10^−3 in series [8] (in concentration of 24.7 μg/ml, without substance 0.3 × 10^−1); 0.2 × 10^−1 in series [9] (in concentration of 24.7 μg/ml, without substance 0.2 × 10); 3 × 10^−6 in series [10] (donor E. coli K12 F′lac2, in concentration of 24.7 μg/ml, without substance 0.6 × 10^−6); 2.2 × 10^−6 in [11] (donor E. coli K 12 F′lac1, in concentration of 24.7 μg/ml, without substance 0.6 × 10^−6).
